Among the data in ChEMBL document CHEMBL3638997, “5-alkynyl-pyrimidines” (2013) are IC50 values, retold here.

The target in the assay is Phosphatidylinositol 4,5-bisphosphate 3-kinase catalytic subunit alpha isoform (Homo sapiens, UniProt P42336). The assay is described as follows: Filter-Binding-Assay: PI3Kalpha assay described herein provides IC50 values indicating the activity of the compounds inhibiting PI3 kinase alpha activity Inhibition of PI3 kinase is expected to be indicative of activity in treating conditions of excessive or anomalous cell proliferation, such as cancers. See also J. A. Engelman, Nature Reviews Cancer, 2009, 9, 550-562; A. Carnero, Expert Opin. ….
Phosphatidylinositol 4,5-bisphosphate 3-kinase catalytic subunit alpha isoform, sequence (P42336 whole entry, canonical isoform): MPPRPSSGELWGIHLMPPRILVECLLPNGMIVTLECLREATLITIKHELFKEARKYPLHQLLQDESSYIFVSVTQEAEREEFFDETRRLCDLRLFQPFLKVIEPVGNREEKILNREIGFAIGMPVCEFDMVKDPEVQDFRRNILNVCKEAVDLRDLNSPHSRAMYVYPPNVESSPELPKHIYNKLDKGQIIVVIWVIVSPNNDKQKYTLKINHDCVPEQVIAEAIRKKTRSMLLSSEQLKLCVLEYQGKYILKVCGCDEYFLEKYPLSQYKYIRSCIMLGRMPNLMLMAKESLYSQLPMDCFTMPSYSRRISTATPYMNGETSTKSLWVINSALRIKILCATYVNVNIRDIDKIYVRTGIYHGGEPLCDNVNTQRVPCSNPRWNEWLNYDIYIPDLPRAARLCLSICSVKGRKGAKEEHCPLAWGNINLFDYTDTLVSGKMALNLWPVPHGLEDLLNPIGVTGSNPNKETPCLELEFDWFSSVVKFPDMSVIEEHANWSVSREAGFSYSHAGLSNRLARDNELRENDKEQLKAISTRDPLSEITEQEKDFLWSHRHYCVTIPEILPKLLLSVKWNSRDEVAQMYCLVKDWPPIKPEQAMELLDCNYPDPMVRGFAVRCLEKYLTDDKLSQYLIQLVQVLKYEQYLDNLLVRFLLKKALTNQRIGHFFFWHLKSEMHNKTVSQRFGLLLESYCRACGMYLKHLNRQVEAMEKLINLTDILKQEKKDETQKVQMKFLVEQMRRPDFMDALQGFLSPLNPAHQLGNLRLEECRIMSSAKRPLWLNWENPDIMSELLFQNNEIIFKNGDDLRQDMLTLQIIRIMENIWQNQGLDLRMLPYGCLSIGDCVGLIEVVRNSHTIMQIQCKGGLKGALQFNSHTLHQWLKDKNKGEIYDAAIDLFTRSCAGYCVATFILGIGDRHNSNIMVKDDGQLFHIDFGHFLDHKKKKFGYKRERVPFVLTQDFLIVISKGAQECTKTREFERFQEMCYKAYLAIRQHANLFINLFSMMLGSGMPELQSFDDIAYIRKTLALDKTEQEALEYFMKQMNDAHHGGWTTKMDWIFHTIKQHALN

Molecule `CCc1ncnc(N2CCC(O)(CC)CC2)c1C#Cc1ccc(N)nc1` showed an IC50 of 15 nM.

By IC50 is commonly meant the concentration that gives 50% inhibition. High values mean weaker potency in that assay, low ones greater potency in that assay.
